Data: patent US9663502B2, “2-Acylamidomethyl and sulfonylamidomethyl benzoxazine carbamates for inhibition of RORgamma activity and the treatment of disease” (Merck Sharp & Dohme Corp., priority 2013, dated 2017)

Biological target: human RORgammaT-Ligand Binding Domain (LBD) (Homo sapiens (Human), UniProt P51449)
Experiment: RORγ-Ligand Binding Domain TR-FRET Assay (co-activator peptide SRC1_2 recruitment)
Format: biochemical

human RORgammaT-Ligand Binding Domain (LBD), sequence (P51449 269-508): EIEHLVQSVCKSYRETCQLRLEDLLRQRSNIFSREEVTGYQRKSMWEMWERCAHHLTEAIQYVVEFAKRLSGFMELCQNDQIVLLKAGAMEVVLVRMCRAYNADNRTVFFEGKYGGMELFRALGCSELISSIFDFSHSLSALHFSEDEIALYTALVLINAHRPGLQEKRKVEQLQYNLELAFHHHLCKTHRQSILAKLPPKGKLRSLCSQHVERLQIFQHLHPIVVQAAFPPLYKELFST

- IC50: 113 nM
Compound: CC(=O)NC[C@H]1CN(S(=O)(=O)c2ccc(F)cc2)c2cc(NC(=O)OC(C3CCCCC3)C(F)(F)F)ccc2O1 (stereo partly drawn) [Example 23D, 1-cyclohexyl-2,2,2-trifluoroethyl ((S)-2-(acetamidomethyl)-4-((4-fluorophenyl)sulfonyl)-3,4-dihydro-2H-benzo[b][1,4]oxazin-6-yl)carbamate]
